# Read-outs that look alike come from different tables or passages of the source.
# How the values were obtained:
# Ishikawa cell lines = experiment: In-vitro cytotoxicity (MTT cell viability assay); type: cell-based; conditions: Homo sapiens, read-out: IC50 values (Ishikawa cell lines, µM ± SD), in-vitro growth inhibition
# Description: The cell growth inhibitory effects of the synthesised compounds were evaluated against Ishikawa cell lines. […] Forth, the synthesised compounds bearing a substituted phenyl ring at position 2 of the biaryl arm bearing benzopyrans were profiled for the cytotoxic effects. Noteworthy to mention that diverse substitutions with varied electronic effects viz fluorine (−I, +R), methoxy (−I, +R), and nitro (−I and − R) were made on the phenyl ring (position 2 of benzopyran). Also, the trimethoxy phenyl ring well established as an imperative structural feature of tubulin inhibitors was tethered to the benzopyran scaffold (20, 21).
# Ishikawa cells (a human endometrial carcinoma of the epithelial cell) were kindly gifted by Dr. Geetanjali Sachdeva and Dr. Uddhav Chaudhari of National Institute for Research In Reproductive and Child Health (NIRRCH), Mumbai. […] The cells were maintained in RPMI medium supplemented with 10% Foetal bovine serum (FBS) and 100 IU/mL penicillin.
# Mitochondrial activity was evaluated by MTT assay.[59] This assay is based on enzymatic reduction of the yellow-colored MTT dye to purple-colored formazan crystals by a variety of mitochondrial and cytosolic enzymes that are operational in viable cells. Briefly, […] (3000 cells/well) were seeded in 100 µL of medium into a 96-well plate and left to settle in a CO2 incubator. […] Then 150 μL of DMSO was added to each well to dissolve the formazan crystals. The optical density (OD) of each well was recorded using a microplate reader at a wavelength of 570 nm. The percentages of cell viability and growth inhibition were calculated according to the following equations. Cell viability (%) = [(OD of treated cells-OD of blank)/(OD of control-OD of blank) ×100].
# [1] = Ishikawa cell lines, MTT, 48 h incubation, mean ± SD, at least three experiments
melting point [°C],SMILES,IC50 (Ishikawa cell lines; [1]) [µM],"IC50 (Ishikawa cell lines; Ishikawa, 48 h) [µM]"
,"COc1ccc(/C=C\c2cc(OC)c(OC)c(OC)c2)cc1O [Combretastatin, Combretastatin A-4, reference compound]",4.21 ± 0.78,
153 to 157,"O=c1cc(-c2ccccc2)oc2cc(-c3ccccc3)ccc12 [Compound 1, 2,7-diphenyl-4H-chromen-4-one]",3 ± 1.09,
163 to 167,"O=c1cc(-c2ccccc2)oc2cc(-c3ccoc3)ccc12 [Compound 2, 7-(Furan-3-yl)-2-phenyl-4H-chromen-4-one]",1.5 ± 0.67,
186 to 189,"O=c1cc(-c2ccccc2)oc2cc(-c3cccs3)ccc12 [Compound 3, 2-phenyl-7-(thiophen-2-yl)-4H-chromen-4-one]",2.1 ± 0.89,
181 to 184,"O=c1cc(-c2ccccc2)oc2cc(-c3ccc4c(c3)OCCO4)ccc12 [Compound 4, 7–(2,3-dihydrobenzo[b][1,4]dioxin-6-yl)-2-phenyl-4H-chromen-4-one]",> 10,
136 to 140,"O=c1cc(-c2ccccc2)oc2cc(-c3ccc4ncccc4c3)ccc12 [Compound 5, 2-phenyl-7-(quinolin-6-yl)-4H-chromen-4-one]",> 10,
246 to 249,"O=c1cc(-c2ccccc2)oc2cc(-c3ccc4[nH]ccc4c3)ccc12 [Compound 6, 7-(1H-indol-5-yl)-2-phenyl-4H-chromen-4-one]",> 10,
172 to 175,"COc1ccc(-c2cc(=O)c3ccc(-c4ccccc4)cc3o2)cc1 [Compound 7, 2–(4-methoxyphenyl)-7-phenyl-4H-chromen-4-one]",6.3 ± 1.08,
173 to 176,"COc1ccc(-c2cc(=O)c3ccc(-c4ccoc4)cc3o2)cc1 [Compound 8, 7-(Furan-3-yl)-2–(4-methoxyphenyl)-4H-chromen-4-one]",3.2 ± 1.04,
180 to 184,"COc1ccc(-c2cc(=O)c3ccc(-c4cccs4)cc3o2)cc1 [Compound 9, 2–(4-methoxyphenyl)-7-(thiophen-2-yl)-4H-chromen-4-one]",3 ± 0.785,
183 to 186,"COc1ccc(-c2cc(=O)c3ccc(-c4ccc5c(c4)OCCO5)cc3o2)cc1 [Compound 10, 7–(2,3-dihydrobenzo[b][1,4]dioxin-6-yl)-2–(4-methoxyphenyl)-4H-chromen-4-one]",> 10,
221 to 224,"COc1ccc(-c2cc(=O)c3ccc(-c4ccc5ncccc5c4)cc3o2)cc1 [Compound 11, 2–(4-methoxyphenyl)-7-(quinolin-6-yl)-4H-chromen-4-one]",> 10,
129 to 132,"COc1ccc(-c2cc(=O)c3ccc(-c4ccc5[nH]ccc5c4)cc3o2)cc1 [Compound 12, 7-(1H-indol-5-yl)-2–(4-methoxyphenyl)-4H-chromen-4-one]",> 10,
193 to 196,"O=c1cc(-c2ccc(F)cc2)oc2cc(-c3ccccc3)ccc12 [Compound 13, 2–(4-fluorophenyl)-7-phenyl-4H-chromen-4-one]",2.03 ± 1.1,
202 to 205,"O=c1cc(-c2ccc(F)cc2)oc2cc(-c3cccs3)ccc12 [Compound 15, 2–(4-fluorophenyl)-7-(thiophen-2-yl)-4H-chromen-4-one]",1.5 ± 1.08,
193 to 196,"O=c1cc(-c2ccc(F)cc2)oc2cc(-c3ccc4c(c3)OCCO4)ccc12 [Compound 16, 7–(2,3-dihydrobenzo[b][1,4]dioxin-6-yl)-2–(4-fluorophenyl)-4H-chromen-4-one]",> 10,
236 to 240,"O=c1cc(-c2ccc(F)cc2)oc2cc(-c3ccc4ncccc4c3)ccc12 [Compound 17, 2–(4-fluorophenyl)-7-(quinolin-6-yl)-4H-chromen-4-one]",> 10,
229 to 232,"O=c1cc(-c2ccc(F)cc2)oc2cc(-c3ccc4[nH]ccc4c3)ccc12 [Compound 18, 2–(4-fluorophenyl)-7-(1H-indol-5-yl)-4H-chromen-4-one]",> 10,
255 to 258,"O=c1cc(-c2ccc([N+](=O)[O-])cc2)oc2cc(-c3ccc4[nH]ccc4c3)ccc12 [Compound 19, 7-(1H-indol-5-yl)-2–(4-nitrophenyl)-4H-chromen-4-one]",> 10,
214 to 217,"COc1cc(-c2cc(=O)c3ccc(-c4ccc5ncccc5c4)cc3o2)cc(OC)c1OC [Compound 20, 7-(Quinolin-6-yl)-2–(3,4,5-trimethoxyphenyl)-4H-chromen-4-one]",> 10,
246 to 250,"COc1cc(-c2cc(=O)c3ccc(-c4ccc5[nH]ccc5c4)cc3o2)cc(OC)c1OC [Compound 21, 7-(1H-indol-5-yl)-2–(3,4,5-trimethoxyphenyl)-4H-chromen-4-one]",> 10,
,"O=C(c1cc(Cc2n[nH]c(=O)c3ccccc23)ccc1F)N1CCN(C(=O)C2CC2)CC1 [Olaparib, reference compound]",,3.91 ± 1.06
,"O=c1cc(-c2ccccc2)oc2ccccc12 [X, reference compound]",> 10,

# Reference: paper PMC10627047, “Flavone-based dual PARP-Tubulin inhibitor manifesting efficacy against endometrial cancer” (Journal of Enzyme Inhibition and Medicinal Chemistry, 2023)
